# Data: patent publication US9695155B2, “Herbicidal substituted pyrimidinyloxy benzene compounds” (E. I. DU PONT DE NEMOURS AND COMPANY, priority 2013, dated 2017)
# Experiments:
# giant foxtail = experiment: Test A postemergence; assay type: in vivo, Setaria faberii
# Procedure, shortened: (§1)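 Greenhouse pot test, loam/sand soil. Formulation: non-phytotoxic solvent mix plus surfactant. Pre: directed spray onto soil after sowing. Post: plants at 1–2 leaf, 2–10 cm. Rated visually vs untreated controls at ~10 d, 0 (no effect) to 100 (complete control).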
# wheat [1] = experiment: Test A postemergence; assay type: in vivo, Triticum aestivum
# Procedure, shortened: as §1
# kochia = experiment: Test C postemergence; assay type: in vivo, Kochia scoparia; settings: for Plant response rating (0 to 100), Kochia: postemergence; for Plant response rating, Kochia: Postemergence, scale 0 to 100 (0 no effect, 100 complete control)
# Procedure, shortened: (§2)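 Seeds were sown in loam–sand blend and sprayed preemergence, while plants at 1- to 4-leaf stage (2–18 cm) in peat-based medium received postemergence sprays; test chemicals were formulated in a non-phytotoxic solvent with surfactant. After 13–15 days in a greenhouse, injury was rated visually against controls, 0 (no effect) to 100 (complete control).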
# corn [2] = experiment: Test A preemergence; assay type: in vivo, Zea mays
# Procedure, shortened: as §1
# barnyardgrass [3] = experiment: Test A preemergence; assay type: in vivo, Echinochloa crus-galli
# Procedure, shortened: as §1
# sedge, umbrella = experiment: Test B flooded paddy test; assay type: in vivo, Cyperus difformis; settings: Flood, 250 g ai/ha; 0 to 100 scale where 0 is no effect and 100 is complete control
# Procedure, shortened: (§3)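 Plants at 2-leaf stage; pots flooded to 3 cm above soil and compound applied directly into paddy water, depth held throughout. After 13 to 15 days in greenhouse, visual rating versus controls on 0 (no effect) to 100 (complete control) scale.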
# pigweed [4] = experiment: Test A postemergence; assay type: in vivo, Amaranthus retroflexus
# Procedure, shortened: as §1
# pigweed [5] = experiment: Test C postemergence; assay type: in vivo, Amaranthus retroflexus; settings: for Plant response rating (0 to 100), Pigweed: postemergence; for Plant response rating, Pigweed: Postemergence, scale 0 to 100 (0 no effect, 100 complete control)
# Procedure, shortened: as §2
# wheat [6] = experiment: Test A preemergence; assay type: in vivo, Triticum aestivum
# Procedure, shortened: as §1
# galium = experiment: Test C postemergence; assay type: in vivo, Galium aparine; settings: for Plant response rating (0 to 100), Galium: postemergence; for Plant response rating, Galium: Postemergence, scale 0 to 100 (0 no effect, 100 complete control)
# Procedure, shortened: as §2
# barnyardgrass [7] = experiment: Test C postemergence; assay type: in vivo, Echinochloa crus-galli; settings: for Plant response rating (0 to 100), Barnyardgrass: postemergence; for Plant response rating, Barnyardgrass: Postemergence, scale 0 to 100 (0 no effect, 100 complete control)
# Procedure, shortened: as §2
# rice = experiment: Test B flooded paddy test; assay type: in vivo, Oryza sativa; settings: Flood, 250 g ai/ha; 0 to 100 scale where 0 is no effect and 100 is complete control
# Procedure, shortened: as §3
# barnyardgrass [8] = experiment: Test A postemergence; assay type: in vivo, Echinochloa crus-galli
# Procedure, shortened: as §1
# pigweed [9] = experiment: Test A preemergence; assay type: in vivo, Amaranthus retroflexus
# Procedure, shortened: as §1
# velvetleaf = experiment: Test C postemergence; assay type: in vivo, Abutilon theophrasti; settings: for Plant response rating (0 to 100), Velvetleaf: postemergence; for Plant response rating, Velvetleaf: Postemergence, scale 0 to 100 (0 no effect, 100 complete control)
# Procedure, shortened: as §2
# Heteranthera limosa = experiment: Test B flooded paddy test; assay type: in vivo; settings: Flood, 250 g ai/ha; 0 to 100 scale where 0 is no effect and 100 is complete control
# Procedure, shortened: as §3
# corn [10] = experiment: Test A postemergence; assay type: in vivo, Zea mays
# Procedure, shortened: as §1
# [11] = 125 g ai/ha, 0 to 100 scale where 0 is no effect and 100 is complete control
# [12] = 500 g ai/ha, 0 to 100 scale, 0 no effect, 100 complete control
# [13] = 500 g ai/ha, 0 to 100 scale, 0 no effect, 100 complete control, approx. 10 days
smiles,measurement,setting,value
Fc1cnc(Oc2ccccc2-n2cc(C(F)(F)F)cn2)nc1 [Compound 47],"Plant response rating, Foxtail, Giant",giant foxtail; [11],80
same,"Plant response rating, Foxtail, Giant",giant foxtail; [12],100
same,"Plant response rating, Wheat",wheat [1]; [11],60
same,"Plant response rating, Wheat",wheat [1]; [12],100
same,"Plant response rating (0 to 100), Kochia",kochia; 125 g ai/ha,25
same,"Plant response rating (0 to 100), Kochia",kochia; 250 g ai/ha,60
same,"Plant response rating, Kochia","kochia; 31 g ai/ha, 13 to 15 days",5
same,"Plant response rating, Kochia",kochia; 62 g ai/ha,10
same,"Plant response rating, Corn",corn [2]; [11],0
same,Corn plant response rating,corn [2]; [13],90
same,"Plant response rating, Barnyardgrass",barnyardgrass [3]; [11],20
same,Barnyardgrass plant response rating,barnyardgrass [3]; [13],100
same,"Plant response rating, Sedge, Umbrella","sedge, umbrella",70
same,"Plant response rating, Pigweed",pigweed [4]; [11],100
same,"Plant response rating, Pigweed",pigweed [4]; [12],100
same,"Plant response rating (0 to 100), Pigweed",pigweed [5]; 125 g ai/ha,65
same,"Plant response rating (0 to 100), Pigweed",pigweed [5]; 250 g ai/ha,70
same,"Plant response rating, Pigweed","pigweed [5]; 31 g ai/ha, 13 to 15 days",40
same,"Plant response rating, Pigweed",pigweed [5]; 62 g ai/ha,55
same,"Plant response rating, Wheat",wheat [6]; [11],0
same,Wheat plant response rating,wheat [6]; [13],40
same,"Plant response rating (0 to 100), Galium",galium; 125 g ai/ha,55
same,"Plant response rating (0 to 100), Galium",galium; 250 g ai/ha,65
same,"Plant response rating, Galium","galium; 31 g ai/ha, 13 to 15 days",35
same,"Plant response rating, Galium",galium; 62 g ai/ha,50
same,"Plant response rating (0 to 100), Barnyardgrass",barnyardgrass [7]; 125 g ai/ha,0
same,"Plant response rating (0 to 100), Barnyardgrass",barnyardgrass [7]; 250 g ai/ha,5
same,"Plant response rating, Barnyardgrass","barnyardgrass [7]; 31 g ai/ha, 13 to 15 days",0
same,"Plant response rating, Barnyardgrass",barnyardgrass [7]; 62 g ai/ha,0
same,"Plant response rating, Rice",rice,35
same,"Plant response rating, Barnyardgrass",barnyardgrass [8]; [11],30
same,"Plant response rating, Barnyardgrass",barnyardgrass [8]; [12],100
same,"Plant response rating, Pigweed",pigweed [9]; [11],100
same,Pigweed plant response rating,pigweed [9]; [13],100
same,"Plant response rating (0 to 100), Velvetleaf",velvetleaf; 125 g ai/ha,70
same,"Plant response rating (0 to 100), Velvetleaf",velvetleaf; 250 g ai/ha,100
same,"Plant response rating, Velvetleaf","velvetleaf; 31 g ai/ha, 13 to 15 days",45
same,"Plant response rating, Velvetleaf",velvetleaf; 62 g ai/ha,50
same,"Plant response rating, Ducksalad",Heteranthera limosa,95
same,"Plant response rating, Corn",corn [10]; [11],40
same,"Plant response rating, Corn",corn [10]; [12],90
